Results as given in patent US20230111853A1, “COMPOUNDS MODULATING PROTEIN RECRUITMENT AND/OR DEGRADATION” (Orionis Biosciences, Inc., priority 2019, published 2023).
Where two headings read alike, the source gives them in different places. Each block holds one molecule with its values, some of them ahead of it.

Columns and labels:
[1] = system: IKZF1, ASS1 and SALL4 recruitment to CRBN; assay: Recruitment assessment: recruitment of any tested substrate from among IKZF1, ASS1 and SALL4; format: cell-based; details: any tested substrate at any tested compound concentration
[2] = molecular target: CRBN (Homo sapiens, UniProt Q96SW2); assay: Competition Assay (MAPPIT-like, competition with trimethoprim-lenalidomide hybrid ligand for binding to CRBN in cells)
[3] = molecular target: T1, SALL4 recruitment to CRBN (Homo sapiens, UniProt Q96SW2); assay: Recruitment Assay (MAPPIT-like): SALL4 recruitment to CRBN; format: cell-based; details: HEK293T cells; pSEL-SALL4+pMG1-CRBN; luciferase 24 hours after treatment; read-out: EC50_SALL4
T1 construct: Full size proteins were fused for each of the target proteins tested, except in the case of IKZF1 where isoform 7 was used; expressed in transfected cells; host or cells: HEK293T
Protocol: In this experimental set-up, cells were transfected with a construct encoding a CRBN-fusion protein and another one encoding a substrate-fusion protein. Test compound activity was assessed with increasing concentrations of test compounds (dose-response studies) to monitor the ability to promote CRBN-ligand-induced protein interaction.
Full size proteins were fused for each of the target proteins tested, except in the case of IKZF1 where isoform 7 was used. For the study, the following were used: IKZF1 recruitment: pSEL-CRBN+pMG1-IKZF1(isoform 7); ASS1 recruitment: pSEL-CRBN+pMG1-ASS1. SALL4 recruitment: pSEL-SALL4+pMG1-CRBN. […] Luciferase activity was measured 24 hours after test compound treatment using the Luciferase Assay System kit (PROMEGA, Madison, Wis.) with an Ensight plate reader (PERKIN ELMER LIFE SCIENCES, Waltham, Mass.). Data points depicted fold induction of the average luciferase activity of triplicate samples from EPO+test compound treated cells versus EPO only treated cells. Error bars represent standard deviations. Curves were fit using 4-parameter nonlinear regression in […] PRISM software.

[4] = read-out: IC50 Competition, HEK293T cells, competition with 300 nM trimethoprim-lenalidomide hybrid ligand, luciferase 24 hours after compound treatment

Structure (SMILES): Cc1ccc2c(c1)C(=O)N(c1c(C(C)C)cccc1C(C)C)C2=O [5HPP-33, 2-(2,6-diisopropylphenyl)-5-methyl-isoindoline-1,3-dione, reference compound]
Recruitment Assessment [1]: FALSE
IC50 [2, 4]: 5.11 µM

Structure (SMILES): O=C1CCC(N2C(=O)C3CCCCC3C2=O)C(=O)N1 (stereo not shown) [C24191, 2-(2,6-dioxo-3-piperidyl)-3a,4,5,6,7,7a-hexahydroisoindole-1,3-dione]
Recruitment Assessment [1]: FALSE
IC50 [2, 4]: 17.7 µM

Structure (SMILES): O=C1CCC(N2Cc3ccc(NCC(=O)Nc4ccccc4)cc3C2=O)C(=O)N1 (stereo not shown) [C84965, 2-[[2-(2,6-dioxo-3-piperidyl)-3-oxo-isoindolin-5-yl]amino]-N-phenyl-acetamide]
Recruitment Assessment [1]: TRUE
IC50 [2, 4]: 0.199 µM

Continued, in another order:

EC50 [3]: 0.517 µM
IC50 [2]: 2.24 µM
Structure (SMILES): O=C1CCC(n2nnc3ccccc3c2=O)C(=O)N1 (stereo not shown) [C21223, 3-(4-oxo-1,2,3-benzotriazin-3-yl)piperidine-2,6-dione]
Recruitment Assessment [1]: TRUE

IC50 [2, 4]: 6.5 µM
Structure (SMILES): O=C1CC/C(=C/c2ccccc2)C(=O)N1 [C68121, (3Z)-3-benzylidenepiperidine-2,6-dione]
Recruitment Assessment [1]: FALSE

IC50 [2, 4]: 6.32 µM
Structure (SMILES): O=C1CCC(Nc2ncc3ccccc3n2)C(=O)N1 (stereo not shown) [C97402, 3-(quinazolin-2-ylamino)piperidine-2,6-dione]
Recruitment Assessment [1]: FALSE
